According to ChEMBL document CHEMBL3045122, “Synthesis, in vitro antimicrobial, antiproliferative, and QSAR studies of N-(substituted phenyl)-2/4-(1H-indol-3-ylazo)-benzamides” (Med Chem Res, 2013):

What was measured:
Escherichia coli [1] = experiment: Antibacterial activity against Escherichia coli assessed as growth inhibition after 24 hr by tube dilution method; format: functional
Candida albicans [2] = experiment: Fungicidal activity against Candida albicans; format: functional
Bacillus subtilis [3] = experiment: Antibacterial activity against Bacillus subtilis assessed as growth inhibition after 24 hr by tube dilution method; format: functional
Escherichia coli [4] = experiment: Bactericidal activity against Escherichia coli; format: functional
Candida albicans [5] = experiment: Ratio of MFC to MIC for Candida albicans; format: functional
MCF7 = experiment: Cytotoxicity against Homo sapiens (human) MCF7 cells assessed as growth inhibition after 72 hr by MTT assay; format: functional, cell-based
Staphylococcus aureus [6] = experiment: Ratio of MBC to MIC for Staphylococcus aureus; format: functional
Aspergillus niger [7] = experiment: Antifungal activity against Aspergillus niger assessed as growth inhibition after 7 days by tube dilution method; format: functional
Aspergillus niger [8] = experiment: Fungicidal activity against Aspergillus niger; format: functional
Bacillus subtilis [9] = experiment: Bactericidal activity against Bacillus subtilis; format: functional
P388 = experiment: Cytotoxicity against Mus musculus (mouse) P388 cells assessed as growth inhibition after 72 hr by MTT assay; format: functional, cell-based
Bacillus subtilis [10] = experiment: Ratio of MBC to MIC for Bacillus subtilis; format: functional
Staphylococcus aureus [11] = experiment: Bactericidal activity against Staphylococcus aureus; format: functional
Candida albicans [12] = experiment: Antifungal activity against Candida albicans assessed as growth inhibition after 48 hr by tube dilution method; format: functional
Staphylococcus aureus [13] = experiment: Antibacterial activity against Staphylococcus aureus assessed as growth inhibition after 24 hr by tube dilution method; format: functional
Aspergillus niger [14] = experiment: Ratio of MFC to MIC for Aspergillus niger; format: functional
Escherichia coli [15] = experiment: Ratio of MBC to MIC for Escherichia coli; format: functional
HCT-116 = experiment: Cytotoxicity against Homo sapiens (human) HCT116 cells assessed as growth inhibition after 72 hr by MTT assay; format: functional, cell-based

SMILES | -logMIC (Escherichia coli [1]) | MFC (Candida albicans [2]) [uM/ml] | -logMIC (Bacillus subtilis [3]) | MBC (Escherichia coli [4]) [uM/ml] | Ratio (Candida albicans [5]) | IC50 (MCF7) [uM/ml] | Ratio (Staphylococcus aureus [6]) | -logMIC (Aspergillus niger [7]) | MFC (Aspergillus niger [8]) [uM/ml] | MBC (Bacillus subtilis [9]) [uM/ml] | IC50 (P388) | Ratio (Bacillus subtilis [10]) | MBC (Staphylococcus aureus [11]) [uM/ml] | -logMIC (Candida albicans [12]) | -logMIC (Staphylococcus aureus [13]) | Ratio (Aspergillus niger [14]) | Ratio (Escherichia coli [15]) | IC50 (HCT-116) [uM/ml]
Cc1ccc(C)c(NC(=O)c2ccc(/N=N\c3c[nH]c4ccccc34)cc2)c1 | 1.77 | 0.07 | 1.47 | >0.14 | 3 | 0.0299 | 3 | 1.47 | 0.03 | >0.14 | Not Active | 3 | >0.14 | 1.47 | 1.47 | 3 | 3 | 0.5435
COc1ccccc1NC(=O)c1ccc(/N=N\c2c[nH]c3ccccc23)cc1 | 1.47 | 0.03 | 1.47 | >0.13 | 3 | 0.0865 | 3 | 1.47 | 0.07 | >0.13 | Not Active | 3 | >0.13 | 1.47 | 1.47 | 3 | 3 | 0.1216
Cc1ccccc1NC(=O)c1ccc(/N=N\c2c[nH]c3ccccc23)cc1 | 1.45 | >0.14 | 1.45 | >0.14 | 3 | 0.0734 | 3 | 1.45 | 0.04 | >0.14 | Not Active | 3 | >0.14 | 1.45 | 1.15 | 3 | 3 | 0.5085
Cc1cccc(NC(=O)c2ccccc2/N=N\c2c[nH]c3ccccc23)c1C | 1.77 | >0.14 | 1.47 | >0.14 | 3 | 0.1087 | 3 | 1.47 | 0.03 | >0.14 | – | 3 | >0.14 | 1.47 | 1.17 | 3 | 3 | 0.3533
Cc1ccc(C)c(NC(=O)c2ccccc2/N=N\c2c[nH]c3ccccc23)c1 | 1.47 | >0.14 | 1.77 | >0.14 | 3 | 0.1087 | 3 | 1.47 | 0.03 | >0.14 | – | 3 | >0.14 | 1.47 | 1.17 | 3 | 3 | 0.163
O=C(Nc1ccccc1F)c1ccccc1/N=N\c1c[nH]c2ccccc12 | 1.76 | >0.14 | 1.46 | >0.14 | 3 | 0.1397 | 3 | 1.46 | 0.03 | >0.14 | – | 3 | >0.14 | 1.46 | 1.16 | 3 | 3 | 0.2235
OC(Cn1cncn1)(Cn1cncn1)c1ccc(F)cc1F [FLUCONAZOLE] | – | 0.04 | – | – | 3 | – | – | 2.64 | 0.04 | – | – | – | – | 2.64 | – | 3 | – | –
O=c1[nH]cc(F)c(=O)[nH]1 [FLUOROURACIL] | – | – | – | – | – | 0.0052 | – | – | – | – | 0.0219 uM/ml | – | – | – | – | – | – | 0.0462
CCn1cc(C(=O)O)c(=O)c2cc(F)c(N3CCNCC3)cc21 [NORFLOXACIN] | 2.61 | – | 2.61 | 0.019 | – | – | 3 | – | – | 0.019 | – | 3 | 0.019 | – | 2.61 | – | 3 | –
